Molecular target: T1, SIRT1 (Homo sapiens, UniProt Q96EB6)
T1 sequence (Q96EB6 1-747): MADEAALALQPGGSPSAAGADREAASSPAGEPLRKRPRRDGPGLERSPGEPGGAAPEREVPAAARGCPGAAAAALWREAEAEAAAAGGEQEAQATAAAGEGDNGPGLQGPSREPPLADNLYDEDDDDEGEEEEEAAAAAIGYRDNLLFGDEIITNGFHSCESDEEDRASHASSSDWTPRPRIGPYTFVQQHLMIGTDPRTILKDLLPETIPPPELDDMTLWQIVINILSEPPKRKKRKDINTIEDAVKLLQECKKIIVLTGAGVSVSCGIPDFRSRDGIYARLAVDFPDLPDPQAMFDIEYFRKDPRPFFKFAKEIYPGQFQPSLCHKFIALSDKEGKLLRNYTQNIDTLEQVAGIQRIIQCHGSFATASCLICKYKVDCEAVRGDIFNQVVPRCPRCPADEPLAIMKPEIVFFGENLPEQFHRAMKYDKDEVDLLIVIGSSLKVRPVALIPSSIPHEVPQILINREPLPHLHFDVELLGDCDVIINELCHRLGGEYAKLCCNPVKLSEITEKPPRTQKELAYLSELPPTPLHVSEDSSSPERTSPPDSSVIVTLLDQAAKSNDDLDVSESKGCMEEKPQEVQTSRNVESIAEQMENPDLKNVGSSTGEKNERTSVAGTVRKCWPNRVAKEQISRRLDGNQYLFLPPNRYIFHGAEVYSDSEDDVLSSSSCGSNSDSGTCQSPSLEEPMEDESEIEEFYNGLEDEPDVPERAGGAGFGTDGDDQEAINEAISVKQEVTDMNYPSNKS
Experiment: Trp mass spectrometry assay (SIRT1 activation)
Assay type: biochemical
Conditions: Trp mass spectrometry assay; for Emax: percent maximum fold activation of SIRT1, read-out: Tryp % Fold Act; for Tryp AVG EC1.5 (μM): EC1.5 = concentration of test compound that results in 150% activation of SIRT1
Source text: Mass spectrometry based assays were used to identify modulators of SIRT1 activity. […] The peptide was labeled with the fluorophore 5TMR (excitation 540 nm/emission 580 nm) at the C-terminus. The sequence of the peptide substrate was based on p53 with several modifications. In addition, the methionine residue naturally present in the sequence was replaced with the norleucine because the methionine may be susceptible to oxidation during synthesis and purification. The Trp based assay utilized a peptide having an amino acid residues as follows: Ac-R-H-K-K(Ac)-W-NH2 (SEQ ID NO: 2).
The Trp mass spectrometry assay was conducted as follows. 0.5 μM peptide substrate and 120 μM βNAD^+ were incubated with 10 nM SIRT1 for 25 minutes at 25° C. in a reaction buffer (50 mM HEPES pH 7.5, […] NaCl, 1 mM DTT, 0.05% BSA). The SIRT1 protein was obtained by cloning the SirT1 gene into a T7-promoter containing vector, which was then expressed in BL21(DE3) bacterial cells and purified as described in further detail below. Test compound was added at varying concentrations to this reaction mixture and the resulting reactions were monitored. After the 25 minute incubation with SIRT1, 10 μL of 10% formic acid was added to stop the reaction. The resulting reactions were sealed and frozen for later mass spec analysis. The relative SIRT1 activity was then determined by measuring the amount of 0-acetyl-ADP-ribose (OAADPR) formed (or, alternatively, the amount of deacetylated Trp peptide generated) by the NAD-dependent sirtuin deacetylation reaction in the presence of varying concentrations of the test compound versus control reactions lacking the test compound. The degree to which the test agent activated deacetylation by SIRT1 was expressed as EC1.5 (i.e., the concentration of compound required to increase SIRT1 activity by 50% over the control lacking test compound), and Percent Maximum Activation (i.e., the maximum activity relative to control (100%) obtained for the test compound).
A control for activation of sirtuin activity was conducted using 10 nM of sirtuin protein, with 1 μL of DMSO in place of compound, to determine the amount of deacetylation of the substrate at a given time point within the linear range of the assay. This time point was the same as that used for test compounds and, within the linear range, the endpoint represents a change in velocity.
For the above assay, SIRT1 protein was expressed and purified as follows. The SirT1 gene was cloned into a T7-promoter containing vector and transformed into BL21(DE3). The protein was expressed by induction with 1 mM IPTG as an N-terminal His-tag fusion protein at 18° C. overnight and harvested at 30,000×g. Cells were lysed with lysozyme in lysis buffer (50 mM Tris-HCl, 2 mM Tris[2-carboxyethyl] phosphine (TCEP), 10 μM ZnCl2, 200 mM NaCl) and further treated with sonication for 10 min for complete lysis. The protein was purified over a Ni-NTA column (Amersham) and fractions containing pure protein were pooled, concentrated and run over a sizing column (Sephadex S200 26/60 global). The peak containing soluble protein was collected and run on an Ion-exchange column (MonoQ). Gradient elution (200 mM-500 mM NaCl) yielded pure protein. This protein was concentrated and dialyzed against dialysis buffer (20 mM Iris-HCl, 2 mM TCEP) overnight. The protein was aliquoted and frozen at −80° C. until further use.

Emax | Tryp AVG EC1.5 (μM) | SMILES
≥ 150% | – | Cc1cnc(NC(=O)N2c3nc(-c4cccc(C(F)(F)F)c4)ccc3N3CC[C@H]2C3)nc1-c1ccccc1 [Example 79]
≥ 150% | – | Cc1csc2nc(NC(=O)N3c4nc(-c5cccc(C(F)(F)F)c5)ccc4N4CC[C@H]3C4)nn12 [Example 80]
≥ 150% | – | O=C(Nc1cc[nH]c(=O)n1)N1c2nc(-c3cccc(C(F)(F)F)c3)ccc2N2CC[C@H]1C2 [Example 82]
≥ 150% | A (EC1.5<1 μM) | O=C(Nc1cccc2nccnc12)N1c2nc(-c3cccc(C(F)(F)F)c3)ccc2N2CC[C@H]1C2 [Example 83]
< 150% | – | Cc1ccc2ncccc2c1NC(=O)N1c2nc(-c3cccc(C(F)(F)F)c3)ccc2N2CC[C@H]1C2 [Example 84]
≥ 150% | – | O=C(Nc1ccccn1)N1c2nc(-c3cccc(C(F)(F)F)c3)ccc2N2CC(O)C1C2 (stereo not shown) [Example 85]
≥ 150% | – | Cc1cc2c(NC(=O)N3c4nc(-c5cccc(C(F)(F)F)c5)ccc4N4CC[C@H]3C4)cccc2nn1 [Example 86]
≥ 150% | A (EC1.5<1 μM) | Cn1ncc2cc(NC(=O)N3c4nc(-c5cccc(C(F)(F)F)c5)ccc4N4CC[C@H]3C4)ccc21 [Example 87]
≥ 150% | A (EC1.5<1 μM) | O=C(Nc1nc2ccccc2s1)N1c2nc(-c3cccc(C(F)(F)F)c3)ccc2N2CC[C@H]1C2 [Example 90]
≥ 150% | B (EC1.5 1-25 μM) | Cc1nc(NC(=O)N2c3nc(-c4cccc(C(F)(F)F)c4)ccc3N3CC[C@H]2C3)nc2c1CCC2 [Example 91]
≥ 150% | B (EC1.5 1-25 μM) | Cc1nn(C)cc1NC(=O)N1c2nc(-c3cccc(C(F)(F)F)c3)ccc2N2CC[C@H]1C2 [Example 92]
≥ 150% | A (EC1.5<1 μM) | O=C1OCc2ccc(NC(=O)N3c4nc(-c5cccc(C(F)(F)F)c5)ccc4N4CC[C@H]3C4)cc21 [Example 93]
≥ 150% | B (EC1.5 1-25 μM) | Cc1cc(C(F)(F)F)nc(NC(=O)N2c3nc(-c4cccc(C(F)(F)F)c4)ccc3N3CC[C@H]2C3)n1 [Example 94]
≥ 150% | A (EC1.5<1 μM) | O=C(Nc1ccc2c(c1)OCCCO2)N1c2nc(-c3cccc(C(F)(F)F)c3)ccc2N2CC[C@H]1C2 [Example 95]
≥ 150% | B (EC1.5 1-25 μM) | O=C(Nc1ccncc1Cl)N1c2nc(-c3cccc(C(F)(F)F)c3)ccc2N2CC[C@H]1C2 [Example 96]
≥ 150% | B (EC1.5 1-25 μM) | O=C(Nc1ccncn1)N1c2nc(C3CCCC(C(F)(F)F)C3)ccc2N2CC[C@H]1C2 (stereo partly shown) [Example 98]
≥ 150% | A (EC1.5<1 μM) | O=C(Nc1cccnc1)N1c2nc(C3CCCC(C(F)(F)F)C3)ccc2N2CC[C@H]1C2 (stereo partly shown) [Example 99]
≥ 150% | B (EC1.5 1-25 μM) | Cc1cnccc1NC(=O)N1c2nc(C3CCCC(C(F)(F)F)C3)ccc2N2CC[C@H]1C2 (stereo partly shown) [Example 100]
≥ 150% | A (EC1.5<1 μM) | O=C(Nc1cnccn1)N1c2nc(-c3cccc(Cl)c3)ccc2N2CC[C@H]1C2 [Example 101]
≥ 150% | A (EC1.5<1 μM) | Cc1nc(NC(=O)N2c3nc(-c4cccc(Cl)c4)ccc3N3CC[C@H]2C3)sc1C [Example 102]

Emax | Tryp AVG EC1.5 (μM) | SMILES
≥ 150% | B (EC1.5 1-25 μM) | COc1cc(NC(=O)N2c3nc(-c4cccc(Cl)c4)ccc3N3CC[C@H]2C3)nc(OC)n1 [Example 103]
≥ 150% | B (EC1.5 1-25 μM) | COc1cc(NC(=O)N2c3nc(-c4cccc(Cl)c4)ccc3N3CC[C@H]2C3)ncn1 [Example 104]
≥ 150% | B (EC1.5 1-25 μM) | Cc1cc(C)nc(NC(=O)N2c3nc(-c4cccc(Cl)c4)ccc3N3CC[C@H]2C3)c1 [Example 105]
≥ 150% | C (EC1.5>25 μM) | Cc1cccnc1NC(=O)N1c2nc(-c3cccc(Cl)c3)ccc2N2CC[C@H]1C2 [Example 106]
≥ 150% | – | O=C(Nc1cccnc1)N1c2nc(-c3cccc(Cl)c3)ccc2N2CC[C@H]1C2 [Example 107]
≥ 150% | B (EC1.5 1-25 μM) | Cn1cc(NC(=O)N2c3nc(-c4cccc(Cl)c4)ccc3N3CC[C@H]2C3)cn1 [Example 108]
≥ 150% | B (EC1.5 1-25 μM) | Cn1ccc(NC(=O)N2c3nc(-c4cccc(Cl)c4)ccc3N3CC[C@H]2C3)n1 [Example 109]
≥ 150% | A (EC1.5<1 μM) | O=C(Nc1ccncn1)N1c2nc(-c3cccc(Cl)c3)ccc2N2CC[C@H]1C2 [Example 110]
≥ 150% | B (EC1.5 1-25 μM) | CC1CN2CC1N(C(=O)Nc1ccncc1)c1nc(-c3cccc(C(F)(F)F)c3)ccc12 (stereo not shown) [Example 114]
≥ 150% | A (EC1.5<1 μM) | Cn1cc2cc(NC(=O)N3c4nc(-c5cccc(Cl)c5)ccc4N4CC[C@H]3C4)ccc2n1 [Example 118]
≥ 150% | A (EC1.5<1 μM) | O=C(Nc1cncc(F)c1)N1c2nc(-c3cccc(Cl)c3)ccc2N2CC[C@H]1C2 [Example 119]
≥ 150% | A (EC1.5<1 μM) | O=C(Nc1ccnnc1)N1c2nc(-c3cccc(Cl)c3)ccc2N2CC[C@H]1C2 [Example 120]
≥ 150% | A (EC1.5<1 μM) | COc1cncc(NC(=O)N2c3nc(-c4cccc(Cl)c4)ccc3N3CC[C@H]2C3)n1 [Example 121]
≥ 150% | A (EC1.5<1 μM) | O=C(Nc1ccncc1)N1c2nc(-c3cccc(Cl)c3)ccc2N2CC[C@H]1C2 [Example 122]
< 150% | C (EC1.5>25 μM) | O=C(Nc1ccc(F)cn1)N1c2nc(-c3ccccc3C(F)(F)F)ccc2N2CC[C@H]1C2 [Example 123]
≥ 150% | B (EC1.5 1-25 μM) | COc1cnc(NC(=O)N2c3nc(-c4cccc(Cl)c4)ccc3N3CC[C@H]2C3)cn1 [Example 124]
≥ 150% | A (EC1.5<1 μM) | O=C(Nc1ccc(F)cn1)N1c2nc(-c3ccnc(C(F)(F)F)c3)ccc2N2CC[C@H]1C2 [Example 128]
≥ 150% | A (EC1.5<1 μM) | O=C(Nc1ccc(F)cn1)N1c2nc(-c3cccc(OC(F)(F)F)c3)ccc2N2CC[C@H]1C2 [Example 129]
≥ 150% | A (EC1.5<1 μM) | N#Cc1cccc(-c2ccc3c(n2)N(C(=O)Nc2ccc(F)cn2)[C@H]2CCN3C2)c1 [Example 130]
≥ 150% | B (EC1.5 1-25 μM) | O=C(Nc1ccc(F)cn1)N1c2nc(-c3cccc(N4CCCC4)c3)ccc2N2CC[C@H]1C2 [Example 131]

From US9765075B2, “Substituted bridged urea analogs as sirtuin modulators” (GLAXOSMITHKLINE LLC, priority 2013, dated 2017)
